ChEMBL document CHEMBL4706760, “Novel Heteroaryl Compounds as Splicing Modulators for Modulating Splicing of mRNA and Uses Thereof for Treating Diseases” (ACS Med Chem Lett, 2021)

What was measured:
Assay type in all cases: subcellular
[1] = Splicing modulation activity at Exon E7b mRNA in human cell lysates assessed as induction of poison exon inclusion in RNA measured cells pretreated for 24 hrs followed by first 16 hrs of incubation treated with cycloheximide for 8 hrs by qPCR
[2] = Splicing modulation activity at Exon E7c mRNA in human cell lysates assessed as induction of poison exon inclusion in RNA measured cells pretreated for 24 hrs followed by first 16 hrs of incubation treated with cycloheximide for 8 hrs by qPCR
[3] = Splicing modulation activity at wild type Exon 7/7b/7c/8 mRNA in human cell lysates assessed as induction of poison exon inclusion in RNA measured cells pretreated for 24 hrs followed by first 16 hrs of incubation treated with cycloheximide for 8 hrs by qPCR
[4] = Splicing modulation activity at Exon 12c mRNA in human cell lysates assessed as induction of poison exon inclusion in RNA measured cells pretreated for 24 hrs followed by first 16 hrs of incubation treated with cycloheximide for 8 hrs by qPCR
[5] = Splicing modulation activity at wild type Exon 12/12b/12c/13 mRNA in human cell lysates assessed as induction of poison exon inclusion in RNA measured cells pretreated for 24 hrs followed by first 16 hrs of incubation treated with cycloheximide for 8 hrs by qPCR

Compound | EC50 [1] | EC50 [2] | IC50 [3] | EC50 [4] | IC50 [5]
CN(c1ccc(-c2cc(F)c(-c3cn[nH]c3)cc2O)nn1)[C@@H]1C[C@H]2CCC[C@@H](C1)N2 | 168 nM | 162 nM | 46 nM |  | 
CNC(=O)/C=C/c1cc(O)c(-c2ccc(N(C)[C@H]3C[C@]4(C)CCC[C@](C)(C3)N4)nn2)cc1F | 41 nM | 310 nM | 99.1 nM | 126 nM | 162 nM
CN(c1ccc(-c2cc(F)c(-c3ccn(C)c(=O)c3)cc2O)nn1)[C@H]1C[C@]2(C)CCC[C@](C)(C1)N2 |  |  |  | 238 nM | 116 nM
CN(c1ncc(-c2ccc(-c3cn[nH]c3)cc2O)nn1)[C@@H]1C[C@H]2CC[C@@H](C1)N2 | 39.6 nM | 294 nM | 150 nM |  | 
CNC(=O)c1ccc2cc(-c3ccc(N(C)[C@H]4C[C@]5(C)CCC[C@](C)(C4)N5)nn3)c(O)cc2n1 | 9.3 nM | 60.2 nM | 27.6 nM | 46.1 nM | 54 nM
CN(c1ccc(-c2cc(F)c(-c3ccn(CF)c(=O)c3)cc2O)nn1)[C@H]1C[C@]2(C)CCC[C@](C)(C1)N2 | 88 nM | 293 nM | 93.9 nM | 92.9 nM | 94.7 nM
